Source: the NIST ThermoML archive (doi:10.1021/je9001653)
“And” between values parts separate entries of the source, which are not always exact repeats. Equal values may be shown once.

c1ccc2cc3ccccc3cc2c1 [anthracene]
Crystal
Conditions	vapor or sublimation pressure
339.25 K	0.000104 kPa
348.35 K	0.000289 kPa
360.45 K	0.000978 kPa
365.66 K	0.00158 kPa
373.95 K	0.00311 kPa
376.95 K	0.00358 kPa
379.55 K	0.00416 kPa
386.45 K	0.00813 kPa
389.05 K	0.00875 kPa and 0.00962 kPa
392.95 K	0.01486 kPa
393.75 K	0.01211 kPa and 0.01243 kPa
398.05 K	0.01765 kPa
398.55 K	0.01813 kPa and 0.0185 kPa

CC(=O)[CH-]C(C)=O.CC(=O)[CH-]C(C)=O.[Cu+2] [bis(2,4-pentanedionato-O,O')copper]
Crystal
Conditions	vapor or sublimation pressure [kPa]
367.65 K	2.2e-05
372.42 K	3.9e-05
376.95 K	6.8e-05
381.83 K	0.00011
386.45 K	0.000172
388.98 K	0.000201
395.55 K	0.000398
398.5 K	0.000601
400.64 K	0.000705
403.26 K	0.000875
405.05 K	0.00118
414.35 K	0.00257
417.53 K	0.00387
423.85 K	0.00479
433.65 K	0.00927
442.85 K	0.0199

c1cc2ccc3cccc4ccc(c1)c2c34 [pyrene]
Crystal 1
Conditions	vapor or sublimation pressure [kPa]
341.45 K	7.5e-05
351.05 K	0.000171
369.85 K	0.000882
373.95 K	0.00147
379.55 K	0.00197
383.95 K	0.00472
389.05 K	0.00539
392.95 K	0.00846
398.55 K	0.01067
402.05 K	0.01662
408.05 K	0.02731
